These results are taken from US20040082598A1, “Compounds specific to adenosine A, receptors and uses thereof” (OSI Pharmaceuticals, Inc., priority 2000, published 2004).

The target of data set [1] is T1, human A1 receptor subtype (Homo sapiens, UniProt P30542).
T1 construct: yeast alpha-factor (Mfα1) prepro leader (N, cleaved yes); expressed in transfected cells; host or cells: Saccharomyces cerevisiae (strain CY12660 or related strains carrying plasmid p5095)
T1 sequence (P30542 1-326): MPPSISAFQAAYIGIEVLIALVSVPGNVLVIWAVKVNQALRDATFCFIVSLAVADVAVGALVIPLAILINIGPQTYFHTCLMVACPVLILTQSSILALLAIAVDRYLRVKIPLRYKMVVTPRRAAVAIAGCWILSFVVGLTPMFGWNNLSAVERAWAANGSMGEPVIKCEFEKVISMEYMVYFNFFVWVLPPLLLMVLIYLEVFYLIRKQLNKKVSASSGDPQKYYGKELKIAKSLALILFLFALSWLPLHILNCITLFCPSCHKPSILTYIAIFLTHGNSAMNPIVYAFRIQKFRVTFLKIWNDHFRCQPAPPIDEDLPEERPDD
Nature of the data set: Adenosine 1 receptor subtype saturation and competition radioligand binding ([3H]DPCPX, yeast membranes).

Data set [2] deals with T2, human A2a receptor subtype (Homo sapiens, UniProt P29274).
T2 construct: expressed in transfected cells; host or cells: HEK-293 (Cadus clone # 5)
T2 sequence (P29274 whole entry): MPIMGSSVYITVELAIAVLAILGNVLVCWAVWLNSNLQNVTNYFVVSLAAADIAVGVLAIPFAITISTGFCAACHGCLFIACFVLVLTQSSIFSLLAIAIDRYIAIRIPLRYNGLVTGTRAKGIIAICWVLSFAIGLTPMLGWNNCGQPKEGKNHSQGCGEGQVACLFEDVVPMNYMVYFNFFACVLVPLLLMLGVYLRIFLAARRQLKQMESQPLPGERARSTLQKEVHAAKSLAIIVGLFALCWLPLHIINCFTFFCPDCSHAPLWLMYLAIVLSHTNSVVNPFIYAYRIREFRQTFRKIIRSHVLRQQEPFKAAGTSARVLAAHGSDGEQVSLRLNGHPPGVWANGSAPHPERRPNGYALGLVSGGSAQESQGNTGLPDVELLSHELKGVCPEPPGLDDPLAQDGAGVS
As to the kind of experiment: Adenosine 2a receptor subtype competition radioligand binding ([3H]CGS-21680, HEK293 membranes). As to conditions: no footnote at cell; footnote 8 of table: % activity @ 10 μM.

Data set [3] concerns the target T3, human adenosine A1 (A1R) (Homo sapiens, UniProt P30542).
T3 construct: yeast alpha-factor (Mfα1) prepro leader (N, cleaved yes); expressed in transfected cells; host or cells: Saccharomyces cerevisiae (strain CY12660 or related strains carrying plasmid p5095)
T3 sequence (P30542 1-326): T1 sequence (P30542 1-326)
As to the kind of experiment: Yeast β-galactosidase reporter gene assay, strain CY12660. It is filed as cell-based. As to conditions: inhibition of NECA-induced β-galactosidase activity. For orientation: In a reporter assay the amount or activity of a reporter protein is the signal.

Data set [4] addresses T4, human A3 receptor subtype (Homo sapiens, UniProt P0DMS8).
T4 construct: expressed in transfected cells; host or cells: HEK293
T4 sequence (P0DMS8 1-318): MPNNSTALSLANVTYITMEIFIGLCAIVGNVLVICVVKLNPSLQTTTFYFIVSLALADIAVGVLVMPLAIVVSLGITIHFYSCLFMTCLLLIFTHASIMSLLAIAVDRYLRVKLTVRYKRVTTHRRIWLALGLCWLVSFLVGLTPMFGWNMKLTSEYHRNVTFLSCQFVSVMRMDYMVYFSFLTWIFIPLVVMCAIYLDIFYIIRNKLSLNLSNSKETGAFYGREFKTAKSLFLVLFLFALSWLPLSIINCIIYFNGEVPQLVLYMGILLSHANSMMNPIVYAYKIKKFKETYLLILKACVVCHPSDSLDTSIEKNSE
As to the kind of experiment: Adenosine 3 receptor competition radioligand binding ([125I]AB-MECA, HEK293 membranes).

The subject of data set [5] is human A1 adenosine receptor. As to conditions: cited from earlier work.
The target in data set [6] is human A2a receptor. The conditions noted are these: read-out: Reported Ki; cited from earlier work.

As for `Cc1[nH]c2nc(-c3ccccc3)nc(NCCNC(=O)C3(N)CC3)c2c1C` [Compound 1313], in data set [1] (no footnote at cell, footnote 8 of table: % activity @ 10 μM), the “A1 binding, % value printed in Ki column” value is on record as 30%. The “A2a binding, % value printed in Ki column” value in data set [2] was found to be 65%.

As to `CNC(=O)NCCCNc1nc(-c2ccccc2)nc2[nH]c(C)c(C)c12` [Compound 1310], the “A2a binding, % value printed in Ki column” value in data set [2] came to 76%.

By Ki is commonly meant the dissociation constant of the complex between target and ligand, obtained from inhibition or displacement. Turning to `Cc1[nH]c2nc(-c3ccccc3)nc(NC3CCC(NS(C)(=O)=O)CC3)c2c1C` (stereo not drawn) [Compound 604], in data set [1], the inhibition constant (Ki) was above 10 µM.

Usually IC50 stands for the concentration that inhibits the measured activity by half. In the case of `Cc1[nH]c2nc(-c3ccccc3)nc(NC3CCC(NC(=O)c4ccccc4)CC3)c2c1C` (stereo not drawn) [Compound 606], the affinity in data set [1] corresponds to a Ki of 0.298 µM. The half-inhibitory concentration (IC50) in data set [3] is above 10 µM.

One may read the melting point as the temperature, or range, at which the solid turns liquid. On to `NC(=O)[C@@H]1CCCN1c1nc(-c2ccccc2)nc2[nH]ccc12` [Compound 1602], for which the melting point was 236 to 238 °C.

In the case of `O[C@H]1CC[C@H](Nc2nc(-c3ccncc3)nc3[nH]ccc23)CC1` [Compound 1321], the “A3 binding, % activity @ 10 μM” value in data set [4] was found to be 54%^8.

The compound `Cc1[nH]c2nc(-c3ccccc3)nc(NC3CCC(CC(=O)c4ccccc4)CC3)c2c1C` (stereo not drawn) [Compound 611] showed a Ki in data set [1] of 0.786 µM. The IC50 in data set [3] was above 10 µM.

Turning to `CC(Cc1ccccc1)Nc1ncnc2c1ncn2[C@@H]1O[C@H](CO)[C@@H](O)[C@H]1O` (single isomer, unassigned; (-)) [PIA, (−)-N6-(2-phenylisopropyl)-adenosine], in data set [5], the reported affinity entry is on record as “approximately 50 nM”.

For `NC(=O)[C@@H]1CCCN1c1nc(-c2ccccc2)nc2[nH]c(C(=O)O)cc12` [Compound 1619, [4-(2-Carbamoylpyrrolidin-1-yl)-2-phenyl-7H-pyrrolo[2,3-d]pyrimidine-6-carboxylic acid]], the melting point was 220 °C (dec.).

The compound `COCc1cc2c(N3CCC[C@H]3C(N)=O)nc(-c3ccccc3)nc2[nH]1` [Compound 1605] returned a melting point of 213 to 215 °C.

In data set [3], `Cc1[nH]c2nc(-c3cccnc3)nc(N[C@H]3CC[C@H](O)CC3)c2c1C` [Compound 700] yielded an IC50 above 10 µM.

In the case of `COC(=O)c1cc2c(NC3CCC(O)CC3)nc(-c3ccccc3)nc2[nH]1` (stereo not drawn) [Compound 1627, 4-(4-Hydroxy-cyclohexylamino)-2-phenyl-7H-pyrrolo[2,3-d]pyrimidine-6-carboxylic acid methyl ester], the melting point is 225 to 227 °C.

In turn, `NC(=O)[C@@H]1C[C@H](O)CN1c1nc(-c2ccccc2)nc2[nH]ccc12` [Compound 1606, 4-Hydroxy-1-(2-phenyl-7H-pyrrolo[2,3-d]pyrimidin-4-yl]-pyrrolidine-2-carboxylic acid amide] gave a melting point of 268 to 271 °C.

With `CCNC(=O)[C@H]1O[C@@H](n2cnc3c(N)ncnc32)[C@H](O)[C@@H]1O` [NECA, 5′-N-ethylcarboxamidoadenosine], the inhibition constant (Ki) in data set [6] is […].

`NC(=O)c1cc2c(NC3CCC(O)CC3)nc(-c3ccccc3)nc2[nH]1` (stereo not drawn) [Compound 1630, 4-(4-Hydroxy-cyclohexylamino)-2-phenyl-7H-pyrrolo[2,3-d]pyrimidine-6-carboxylic acid amide]: the melting point is 210 to 220 °C (dec.).
